Experimental data as given in PubChem BioAssay (NCI).
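Dose response: 5 concentrations. Exposure: 48 h. Format: 96-well plates. Endpoint: linear interpolation; highest concentration if not reached. GI50 = concentration required for 50% inhibition of growth. TGI denotes the concentration required for complete inhibition of growth.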

What was measured:
Experiment in all cases: DTP human tumour cell line panel, 48 h
IGROV1 ovarian = tested on: IGROV1 ovarian
MDA-MB-231 breast = tested on: MDA-MB-231 breast
U251 CNS = tested on: U251 CNS
HCT-116 colon = tested on: HCT-116 colon
EKVX NSCLC = tested on: EKVX NSCLC
SW-620 colon = tested on: SW-620 colon
MALME-3M melanoma = tested on: MALME-3M melanoma
LOX IMVI melanoma = tested on: LOX IMVI melanoma
BT-549 breast = tested on: BT-549 breast
SK-OV-3 ovarian = tested on: SK-OV-3 ovarian
A498 renal = tested on: A498 renal
OVCAR-5 ovarian = tested on: OVCAR-5 ovarian
K-562 leukemia = tested on: K-562 leukemia
M14 melanoma = tested on: M14 melanoma
SK-MEL-28 melanoma = tested on: SK-MEL-28 melanoma
HT29 colon = tested on: HT29 colon
PC-3 prostate = tested on: PC-3 prostate
SF-268 CNS = tested on: SF-268 CNS
NCI-H460 lung = tested on: NCI-H460 lung
TK-10 renal = tested on: TK-10 renal
RPMI-8226 leukemia = tested on: RPMI-8226 leukemia
COLO 205 colon = tested on: COLO 205 colon
SK-MEL-5 melanoma = tested on: SK-MEL-5 melanoma
HCT-15 colon = tested on: HCT-15 colon
SNB-19 CNS = tested on: SNB-19 CNS
NCI/ADR-RES ovarian = tested on: NCI/ADR-RES ovarian
SR leukemia = tested on: SR leukemia
HCC-2998 colon = tested on: HCC-2998 colon
ACHN renal = tested on: ACHN renal
SK-MEL-2 melanoma = tested on: SK-MEL-2 melanoma
CCRF-CEM leukemia = tested on: CCRF-CEM leukemia
T-47D breast = tested on: T-47D breast
UO-31 renal = tested on: UO-31 renal
HOP-92 NSCLC = tested on: HOP-92 NSCLC
MOLT-4 leukemia = tested on: MOLT-4 leukemia
NCI-H226 lung = tested on: NCI-H226 lung
HS 578T breast = tested on: HS 578T breast
786-0 renal = tested on: 786-0 renal
MDA-MB-435 = tested on: MDA-MB-435
OVCAR-8 ovarian = tested on: OVCAR-8 ovarian
SF-295 CNS = tested on: SF-295 CNS
OVCAR-3 ovarian = tested on: OVCAR-3 ovarian
HL-60(TB) leukemia = tested on: HL-60(TB) leukemia
SN12C renal = tested on: SN12C renal
RXF 393 renal = tested on: RXF 393 renal
NCI-H522 lung = tested on: NCI-H522 lung
MCF7 breast = tested on: MCF7 breast
SNB-75 CNS = tested on: SNB-75 CNS
UACC-257 melanoma = tested on: UACC-257 melanoma
HOP-62 NSCLC = tested on: HOP-62 NSCLC
UACC-62 melanoma = tested on: UACC-62 melanoma
KM12 colon = tested on: KM12 colon
OVCAR-4 ovarian = tested on: OVCAR-4 ovarian
A549 NSCLC = tested on: A549 NSCLC
CAKI-1 renal = tested on: CAKI-1 renal
NCI-H23 lung = tested on: NCI-H23 lung
DU-145 prostate = tested on: DU-145 prostate

COc1cc(/C=C\c2cc(/C=C\c3ccc(O)c(OC)c3)n(C(=O)CNc3ccc(Cl)cc3)n2)ccc1O
GI50 (IGROV1 ovarian): 2.84 µM | TGI (IGROV1 ovarian): 14.3 µM | GI50 (MDA-MB-231 breast): 4.02 µM | TGI (MDA-MB-231 breast): 45 µM | GI50 (U251 CNS): 2.94 µM | TGI (U251 CNS): 11.8 µM | GI50 (HCT-116 colon): 2.9 µM | TGI (HCT-116 colon): 13.5 µM | GI50 (EKVX NSCLC): 3.48 µM | TGI (EKVX NSCLC): 14.5 µM | GI50 (SW-620 colon): 4.75 µM | TGI (SW-620 colon): 23.2 µM | GI50 (MALME-3M melanoma): 1.6 µM | TGI (MALME-3M melanoma): 12 µM | GI50 (LOX IMVI melanoma): 2.17 µM | TGI (LOX IMVI melanoma): 6.95 µM | GI50 (BT-549 breast): 3 µM | TGI (BT-549 breast): 47 µM | GI50 (SK-OV-3 ovarian): 3.65 µM | TGI (SK-OV-3 ovarian): 13 µM | GI50 (A498 renal): 7.64 µM | TGI (A498 renal): 20 µM | GI50 (OVCAR-5 ovarian): 2.78 µM | TGI (OVCAR-5 ovarian): 25.4 µM | GI50 (K-562 leukemia): 2.59 µM | TGI (K-562 leukemia): 12.3 µM | GI50 (M14 melanoma): 2.89 µM | TGI (M14 melanoma): 15.5 µM | GI50 (SK-MEL-28 melanoma): 2.3 µM | TGI (SK-MEL-28 melanoma): 11.6 µM | GI50 (HT29 colon): 3 µM | TGI (HT29 colon): 9.27 µM | GI50 (PC-3 prostate): 3.38 µM | TGI (PC-3 prostate): 47.9 µM | GI50 (SF-268 CNS): 2.49 µM | TGI (SF-268 CNS): 14.9 µM | GI50 (NCI-H460 lung): 3.17 µM | TGI (NCI-H460 lung): 12.5 µM | GI50 (TK-10 renal): 5.52 µM | TGI (TK-10 renal): 18.8 µM | GI50 (RPMI-8226 leukemia): 1.88 µM | TGI (RPMI-8226 leukemia): 6.36 µM | GI50 (COLO 205 colon): 4.87 µM | TGI (COLO 205 colon): 18.3 µM | GI50 (SK-MEL-5 melanoma): 3.24 µM | TGI (SK-MEL-5 melanoma): 11.3 µM | GI50 (HCT-15 colon): 2.54 µM | TGI (HCT-15 colon): 12.2 µM | GI50 (SNB-19 CNS): 3.18 µM | TGI (SNB-19 CNS): 14.1 µM | GI50 (NCI/ADR-RES ovarian): 3.75 µM | TGI (NCI/ADR-RES ovarian): 41.8 µM | GI50 (SR leukemia): 0.341 µM | TGI (SR leukemia): 7.14 µM | GI50 (HCC-2998 colon): 6.01 µM | TGI (HCC-2998 colon): 18 µM | GI50 (ACHN renal): 0.628 µM | TGI (ACHN renal): 14.9 µM | GI50 (SK-MEL-2 melanoma): 3.97 µM | TGI (SK-MEL-2 melanoma): 18.8 µM | GI50 (CCRF-CEM leukemia): 1.49 µM | TGI (CCRF-CEM leukemia): 5.45 µM | GI50 (T-47D breast): 2.79 µM | TGI (T-47D breast): 16 µM | GI50 (UO-31 renal): 1.21 µM | TGI (UO-31 renal): 8.42 µM | GI50 (HOP-92 NSCLC): 5.65 µM | TGI (HOP-92 NSCLC): 24.2 µM | GI50 (MOLT-4 leukemia): 2.05 µM | TGI (MOLT-4 leukemia): 15.6 µM | GI50 (NCI-H226 lung): 4.39 µM | TGI (NCI-H226 lung): 21.6 µM | GI50 (HS 578T breast): 4.36 µM | TGI (HS 578T breast): > 100 µM | GI50 (786-0 renal): 3.03 µM | TGI (786-0 renal): 12.8 µM | GI50 (MDA-MB-435): 2.52 µM | TGI (MDA-MB-435): 23.4 µM | GI50 (OVCAR-8 ovarian): 3.63 µM | TGI (OVCAR-8 ovarian): 13.9 µM | GI50 (SF-295 CNS): 6.07 µM | TGI (SF-295 CNS): 20.1 µM | GI50 (OVCAR-3 ovarian): 2.46 µM | TGI (OVCAR-3 ovarian): 8.11 µM | GI50 (HL-60(TB) leukemia): 2.07 µM | TGI (HL-60(TB) leukemia): 6.68 µM | GI50 (SN12C renal): 3.18 µM | TGI (SN12C renal): 20.6 µM | GI50 (RXF 393 renal): 2.1 µM | TGI (RXF 393 renal): 4.67 µM | GI50 (NCI-H522 lung): 1.51 µM | TGI (NCI-H522 lung): 5.06 µM | GI50 (MCF7 breast): 2.34 µM | TGI (MCF7 breast): 11.9 µM | GI50 (SNB-75 CNS): 2.84 µM | TGI (SNB-75 CNS): 13 µM | GI50 (UACC-257 melanoma): 5.17 µM | TGI (UACC-257 melanoma): 17.7 µM | GI50 (HOP-62 NSCLC): 4.14 µM | TGI (HOP-62 NSCLC): 16.7 µM | GI50 (UACC-62 melanoma): 2.73 µM | TGI (UACC-62 melanoma): 9.2 µM | GI50 (KM12 colon): 2.64 µM | TGI (KM12 colon): 13.1 µM | GI50 (OVCAR-4 ovarian): 2.88 µM | TGI (OVCAR-4 ovarian): > 100 µM | GI50 (A549 NSCLC): 3.94 µM | TGI (A549 NSCLC): 16.5 µM | GI50 (CAKI-1 renal): 3.36 µM | TGI (CAKI-1 renal): 43.6 µM | GI50 (NCI-H23 lung): 3.35 µM | TGI (NCI-H23 lung): 15.8 µM | GI50 (DU-145 prostate): 3.25 µM | TGI (DU-145 prostate): 12.3 µM
